From ChEMBL document CHEMBL1201862, “PubChem BioAssay data set” (2004) come the findings set out here.

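1) Cells in 96-well plates. 2) Compound, 48 h, 5 concentrations. 3) Linear interpolation between surrounding doses. 4) Unreached endpoint = highest concentration. Abbreviation: GI50, concentration required for 50% inhibition of growth.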 Activity calls are given as the source filed them. No stated cut-off is given here; in the data, active = GI50 up to about 1.1 µM and inactive = higher. Bounds are passed on as bounds.

Among the test systems are A498; CAKI-1; HCC 2998; HOP-62; HT-29; LOX IMVI; MOLT-4; NCI-H23; NCI-H522; RXF 393; SF-268; SF-539; SR; SW-620; TK-10.
Assay in all cases: DTP human tumour cell line panel, 48 h

`C=CC/N=C1\N=C(C)C(C(=O)OCC)S1` (stereo not drawn): the GI50 in the assay on A498, in the assay on CAKI-1, in the assay on HCC 2998, with HOP-62, in the assay with HT-29 and with LOX IMVI was > 100 µM (inactive) each time. Besides, the GI50 in the assay on MOLT-4, in the assay with NCI-H23, in the assay on NCI-H522, with RXF 393, in the assay on SF-268 and with SF-539 was > 100 µM (inactive) each time. Besides, the GI50 in the assay with SR, in the assay with SW-620 and in the assay with TK-10 was > 100 µM (inactive) throughout.
As to `O=C1C(C2=[N+]([O-])c3ccccc3C2=O)=[N+]([O-])c2ccccc21`, the GI50 in the assay with A498 is 25.4 µM (inactive); in the assay with HT-29, 32.8 µM (inactive); in the assay with LOX IMVI it was 15.6 µM (inactive); with MOLT-4 it was 15.3 µM (inactive); with NCI-H23, 23.9 µM (inactive); with RXF 393, 31.9 µM (inactive). For the same compound, the GI50 in the assay on SF-268 was 28.2 µM (inactive); in the assay on SF-539 it was 20.5 µM (inactive); in the assay on SR, 22.5 µM (inactive); in the assay on SW-620, 21.8 µM (inactive); with TK-10 it was 35.4 µM (inactive).
With `COc1ccccc1-n1c(C)nc2ccccc2c1=O`, the GI50 with A498, in the assay with CAKI-1, in the assay on HCC 2998, in the assay with HOP-62, with HT-29 and with LOX IMVI was > 100 µM (inactive) in each case. Also, the GI50 in the assay on MOLT-4, with NCI-H23, with NCI-H522, in the assay on RXF 393, with SF-268 and in the assay on SF-539 was > 100 µM (inactive) each time. The GI50 in the assay on SR, with SW-620 and with TK-10 was > 100 µM (inactive) in each case.
As to `COC12C=CC(CC1)c1c(O)ccc(O)c12` (stereo not drawn), the GI50 in the assay on A498 is > 100 µM (inactive); in the assay on CAKI-1 it was > 80.9 µM (inactive); in the assay with HCC 2998, 99.3 µM (inactive); in the assay on HOP-62 it was > 100 µM (inactive); with HT-29, 64.9 µM (inactive); in the assay on MOLT-4 it was 22.8 µM (inactive). The GI50 with NCI-H23 is > 86.1 µM (inactive); with NCI-H522, 16.8 µM (inactive); in the assay on RXF 393 it was > 79.6 µM (inactive); with SF-268 it was > 31.6 µM (inactive); in the assay with SF-539, > 100 µM (inactive); in the assay with SR, 5.6 µM (inactive). For the same compound, the figures for the GI50 in the assay with SW-620 and in the assay with TK-10 were 27.5 µM (inactive) and > 49.7 µM (inactive), respectively.
For `O=C(O)CCCc1cc2c(s1)-c1cccc3cccc-2c13`, the GI50 in the assay with CAKI-1 is 32.6 µM (inactive); in the assay with HCC 2998, 24.3 µM (inactive); in the assay with HOP-62 it was 33.3 µM (inactive); in the assay on HT-29, > 100 µM (inactive); with LOX IMVI, 21.9 µM (inactive); in the assay with MOLT-4, 24.1 µM (inactive). Besides, the GI50 in the assay on NCI-H23 is 21.2 µM (inactive); in the assay on NCI-H522, 21 µM (inactive); in the assay with SF-268, 39.6 µM (inactive); in the assay with SF-539, 45.3 µM (inactive); with SR, 23.7 µM (inactive); in the assay with SW-620 it was 36.2 µM (inactive). In addition, the GI50 in the assay with TK-10 was 49 µM (inactive).
Consider `COc1cc(/C=C2\C(=O)N(C(=O)Cc3ccccc3)N=C2C)ccc1O`, for which the GI50 in the assay with CAKI-1 is > 100 µM (inactive); in the assay with HCC 2998 it was > 100 µM (inactive); in the assay on HOP-62, > 100 µM (inactive); with HT-29, > 10 µM (inactive); in the assay with LOX IMVI, > 100 µM (inactive); in the assay on MOLT-4 it was > 100 µM (inactive). In addition, the GI50 in the assay with NCI-H23, in the assay with NCI-H522, in the assay with SF-268, in the assay on SF-539, in the assay with SR and with SW-620 was > 100 µM (inactive) each time. Besides, the GI50 in the assay with TK-10 is > 100 µM (inactive).
For `CC1=CP(=O)(OC(C)C)C=C(C)C1=C(Cl)Cl` (stereo not drawn), the GI50 was > 100 µM (inactive) with HCC 2998; > 100 µM (inactive) in the assay on HOP-62; 45.6 µM (inactive) in the assay with HT-29; 57 µM (inactive) in the assay on LOX IMVI; 57.4 µM (inactive) in the assay with MOLT-4; 52.7 µM (inactive) in the assay with NCI-H23. Further, the GI50 is 2.52 µM (inactive) in the assay with NCI-H522; 66.2 µM (inactive) with RXF 393; > 100 µM (inactive) in the assay on SF-268; 84.1 µM (inactive) with SF-539; 35.5 µM (inactive) in the assay on SR; 44 µM (inactive) in the assay on SW-620. For the same compound, the GI50 in the assay on TK-10 is > 100 µM (inactive).
As for `CC(C)(C)c1cc([Si](C)(C)C)c(C#N)c([Si](C)(C)C)c1`, the GI50 is > 100 µM (inactive) in the assay with A498; > 100 µM (inactive) with CAKI-1; 90.6 µM (inactive) with HCC 2998; > 100 µM (inactive) in the assay on HOP-62; 76.7 µM (inactive) in the assay with HT-29; 78.5 µM (inactive) in the assay with LOX IMVI. Further, the GI50 with MOLT-4 is 37.2 µM (inactive); in the assay on NCI-H23, 76.9 µM (inactive); in the assay on NCI-H522, 46.6 µM (inactive); in the assay on RXF 393, 36.6 µM (inactive); in the assay with SF-268 it was 41.7 µM (inactive); in the assay with SF-539 it was > 100 µM (inactive). Moreover, the GI50 is 34.9 µM (inactive) with SR, > 100 µM (inactive) with SW-620 and > 100 µM (inactive) in the assay with TK-10.
Regarding `C/C(=N\NC(N)=S)c1ccc(C)c(C)c1`, the GI50 in the assay with A498 is 66.7 µM (inactive); in the assay on CAKI-1, 92.5 µM (inactive); in the assay with HCC 2998, 51.6 µM (inactive); in the assay on HOP-62, > 100 µM (inactive); with HT-29 it was 19.4 µM (inactive); with LOX IMVI it was > 100 µM (inactive). Moreover, the GI50 with MOLT-4 is 15.8 µM (inactive); in the assay with NCI-H23, 85.7 µM (inactive); in the assay with RXF 393, 23 µM (inactive); in the assay on SF-268, > 100 µM (inactive); in the assay on SF-539, 19.9 µM (inactive); with SR it was 68.9 µM (inactive). For the same compound, the GI50 is 52.8 µM (inactive) in the assay with SW-620 and 53.5 µM (inactive) in the assay on TK-10.
As for `CC(C)(c1ccc(Oc2ccc(C#N)c(C#N)c2)cc1)c1ccc(Oc2ccc(C#N)c(C#N)c2)cc1`, the GI50 with A498, with CAKI-1, in the assay on HCC 2998, in the assay with HOP-62, with HT-29 and in the assay on LOX IMVI was > 10 µM (inactive) each time. Besides, the GI50 with MOLT-4, with NCI-H23, in the assay with NCI-H522, with RXF 393, in the assay on SF-268 and with SF-539 was > 10 µM (inactive) each time. In addition, the GI50 in the assay with SR is > 10 µM (inactive); in the assay on SW-620 it was > 100 µM (inactive); in the assay on TK-10, > 10 µM (inactive).
Turning to `CC/C(CC(=O)CCC(=O)Nc1ccccc1[N+](=O)[O-])=N/NC(=O)C[n+]1ccccc1`, the GI50 in the assay on A498, in the assay with CAKI-1, in the assay with HCC 2998, in the assay on HOP-62, in the assay with HT-29 and in the assay on LOX IMVI was > 100 µM (inactive) each time. Further, the GI50 in the assay with MOLT-4, in the assay with NCI-H23, in the assay on NCI-H522, with RXF 393, with SF-268 and with SF-539 was > 100 µM (inactive) in each case. Also, the GI50 with SR, with SW-620 and in the assay on TK-10 was > 100 µM (inactive) each time.
Take `C[Si]1(C)C(c2ccccc2)=CC2C(c3ccccc3)(c3ccccc3)OC21c1ccccc1` (stereo not drawn): the GI50 in the assay with A498 was > 100 µM (inactive); with CAKI-1, > 100 µM (inactive); in the assay on HCC 2998, > 100 µM (inactive); with HOP-62, > 100 µM (inactive); in the assay on HT-29, 43 µM (inactive); in the assay on LOX IMVI, > 100 µM (inactive). The GI50 with MOLT-4 is 58.1 µM (inactive); in the assay on NCI-H23, > 100 µM (inactive); with NCI-H522, > 100 µM (inactive); in the assay on RXF 393, 47.5 µM (inactive); in the assay with SF-268, > 100 µM (inactive); in the assay with SF-539, > 100 µM (inactive). Besides, the results for the GI50 in the assay with SR, in the assay on SW-620 and in the assay with TK-10 were 29.4 µM (inactive), > 100 µM (inactive) and > 100 µM (inactive), respectively.
For `COc1cc(Nc2nc3ccccc3nc2-c2cccs2)cc(OC)c1OC`, the GI50 in the assay with HCC 2998 is 36.4 µM (inactive); with HOP-62, 39.4 µM (inactive); with HT-29, 41.7 µM (inactive); with LOX IMVI, 45.6 µM (inactive); in the assay with MOLT-4 it was 12.9 µM (inactive); in the assay with NCI-H23, 50.6 µM (inactive). Besides, the GI50 with RXF 393 was 16.6 µM (inactive); in the assay on SF-268, 25.8 µM (inactive); with SF-539, 40.6 µM (inactive); in the assay with SR it was 26.1 µM (inactive); in the assay with SW-620, 50.4 µM (inactive); in the assay on TK-10, 35.8 µM (inactive).
For `Cc1ccc(Cn2c(C)nc3c2C(=O)c2ccccc2C3=O)cc1`, the GI50 with HCC 2998 is 17.6 µM (inactive); in the assay on HOP-62, 14 µM (inactive); with HT-29, 1.27 µM (inactive); in the assay on LOX IMVI, 0.597 µM (active); in the assay on MOLT-4, 0.64 µM (active); in the assay with NCI-H23, 5.21 µM (inactive). Besides, the GI50 is 3.14 µM (inactive) with NCI-H522; 11.4 µM (inactive) in the assay with RXF 393; 3.43 µM (inactive) in the assay on SF-268; 1.32 µM (inactive) in the assay with SF-539; 0.331 µM (active) in the assay on SR; 3.33 µM (inactive) in the assay on SW-620. Also, the GI50 with TK-10 was 13 µM (inactive).
